According to patent US7786141B2 (Vertex Pharmaceuticals Incorporated, priority 2004, dated 2010):

Tests used:
M1 muscarinic receptor = target: T1, M1 muscarinic receptor (Homo sapiens, UniProt P11229); assay: Functional mobilization of intracellular calcium (FLIPR) in M1-CHO cells; assay type: cell-based; details: M1-CHO cells, calcium mobilization (FLIPR); for Emax: read-out: M1 Efficacy
T1 construct: expressed in transfected cells; host or cells: CHO (M1-CHO)
T1 sequence (P11229 1-460): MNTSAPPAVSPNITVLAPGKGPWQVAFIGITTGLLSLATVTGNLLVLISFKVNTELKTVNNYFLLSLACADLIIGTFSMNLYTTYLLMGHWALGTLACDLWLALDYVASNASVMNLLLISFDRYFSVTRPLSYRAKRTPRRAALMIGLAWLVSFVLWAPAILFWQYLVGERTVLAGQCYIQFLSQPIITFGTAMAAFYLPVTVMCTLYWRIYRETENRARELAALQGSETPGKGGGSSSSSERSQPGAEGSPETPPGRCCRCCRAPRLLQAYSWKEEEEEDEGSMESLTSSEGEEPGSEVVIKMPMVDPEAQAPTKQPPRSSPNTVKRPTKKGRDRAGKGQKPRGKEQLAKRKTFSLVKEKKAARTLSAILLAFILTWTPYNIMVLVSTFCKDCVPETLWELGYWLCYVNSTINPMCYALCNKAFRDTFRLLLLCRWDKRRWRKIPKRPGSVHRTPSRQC
Outline: (§1)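 Measured via Fluo-3 fluorescence on a FLIPR, CHO cells with either muscarinic subtype received compound in 0.5% DMSO. Antagonism was assessed after 15 min pre-incubation followed by carbachol at each subtype's EC80; agonism from compound addition alone.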

M4 muscarinic receptor = target: T2, M4 muscarinic receptor (Homo sapiens, UniProt P08173); assay: Functional mobilization of intracellular calcium (FLIPR) in M4-CHO cells; assay type: cell-based; details: M4-CHO cells, calcium mobilization (FLIPR); for Emax: read-out: M4 Efficacy
T2 construct: expressed in transfected cells; host or cells: CHO (M4-CHO)
T2 sequence (P08173 1-479): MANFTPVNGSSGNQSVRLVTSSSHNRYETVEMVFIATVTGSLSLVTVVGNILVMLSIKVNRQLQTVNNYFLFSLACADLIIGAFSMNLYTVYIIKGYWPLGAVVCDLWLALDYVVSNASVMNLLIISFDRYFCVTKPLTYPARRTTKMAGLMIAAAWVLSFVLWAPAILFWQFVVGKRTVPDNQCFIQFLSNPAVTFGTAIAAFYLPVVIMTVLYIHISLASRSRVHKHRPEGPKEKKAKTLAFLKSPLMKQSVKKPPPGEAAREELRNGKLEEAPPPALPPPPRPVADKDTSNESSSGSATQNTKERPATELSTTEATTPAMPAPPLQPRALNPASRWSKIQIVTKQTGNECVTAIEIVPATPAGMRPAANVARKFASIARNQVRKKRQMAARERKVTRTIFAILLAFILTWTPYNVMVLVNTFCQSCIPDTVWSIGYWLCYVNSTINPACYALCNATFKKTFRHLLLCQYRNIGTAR
Outline: as §1

Question: How did the EC50 (M1 muscarinic receptor) turn out when `CCNC(=O)N1CC2(CCN(C3CC4CCC3C4)CC2)c2cc(C)ccc21` (centres unmarked) [compound 400] was run?
Answer: > 1000 nM

Question: What about the Emax (M1 muscarinic receptor) of the same compound?
Answer: < 65%

Question: And the EC50 (M4 muscarinic receptor)?
Answer: > 1000 nM

Question: And the Emax (M4 muscarinic receptor)?
Answer: < 65%

Question: Which EC50 (M1 muscarinic receptor) does the source give for `CCOC(=O)N1CCC(N2CCC3(CC2)CN(C(=O)c2ccc4c(c2)OCO4)c2ccc(F)cc23)CC1` [compound 401] here?
Answer: < 100 nM

Question: And the Emax (M1 muscarinic receptor)?
Answer: 65 to 85%

Question: What about the EC50 (M4 muscarinic receptor) of the same compound?
Answer: > 1000 nM

Question: What about the Emax (M4 muscarinic receptor) of the same compound?
Answer: < 65%

Question: What does the source list for `CC(C)OC(=O)N1C2CCC1CC(N1CCC3(CC1)CN(C(=O)O[C@@H]1CCOC1)c1ccc(F)cc13)C2` (some centres unmarked) [compound 402]?
Answer: EC50 (M1 muscarinic receptor): 100 to 1000 nM; Emax (M1 muscarinic receptor): 65 to 85%; EC50 (M4 muscarinic receptor): > 1000 nM; Emax (M4 muscarinic receptor): < 65%

Question: How did the EC50 (M1 muscarinic receptor) turn out when `CC(=O)N1CC2(CCN(CC3CCN(C(=O)O[C@@H]4CCOC4)CC3)CC2)c2cc(C)ccc21` [compound 403] was run?
Answer: < 100 nM

Question: What about the Emax (M1 muscarinic receptor) of the same compound?
Answer: 65 to 85%

Question: And the EC50 (M4 muscarinic receptor)?
Answer: > 1000 nM

Question: What about the Emax (M4 muscarinic receptor) of the same compound?
Answer: < 65%

Question: Which EC50 (M1 muscarinic receptor) does the source give for `CC(=O)N1CC2(CCN(CC3CCN(C(=O)OC(C)C)CC3)CC2)c2cc(C)ccc21` [compound 404] here?
Answer: 100 to 1000 nM

Question: What about the Emax (M1 muscarinic receptor) of the same compound?
Answer: < 65%

Question: And the EC50 (M4 muscarinic receptor)?
Answer: > 1000 nM

Question: And the Emax (M4 muscarinic receptor)?
Answer: < 65%

Question: With `CCCOC(=O)N1C2CCC1CC(N1CCC3(CC1)CN(C(=O)OCCOC)c1ccc(F)cc13)C2` (centres unmarked) [compound 405] as the compound, how does the EC50 (M1 muscarinic receptor) read?
Answer: 100 to 1000 nM

Question: What about the Emax (M1 muscarinic receptor) of the same compound?
Answer: < 65%

Question: What about the EC50 (M4 muscarinic receptor) of the same compound?
Answer: > 1000 nM

Question: What about the Emax (M4 muscarinic receptor) of the same compound?
Answer: < 65%

Question: How did the EC50 (M1 muscarinic receptor) turn out when `CCOC(=O)N1CCC(N2CCC3(CC2)CN(C(C)=O)c2ccc(-c4ccc(C(N)=O)cc4)cc23)CC1` [compound 406] was run?
Answer: 100 to 1000 nM

Question: What about the Emax (M1 muscarinic receptor) of the same compound?
Answer: < 65%

Question: And the EC50 (M4 muscarinic receptor)?
Answer: > 1000 nM

Question: And the Emax (M4 muscarinic receptor)?
Answer: < 65%

Question: How did the EC50 (M1 muscarinic receptor) turn out when `C/C=C\c1ccc2c(c1)C1(CCN(C3CCN(C(=O)OCC)CC3)CC1)CN2C(C)=O` [compound 407] was run?
Answer: 100 to 1000 nM

Question: And the Emax (M1 muscarinic receptor)?
Answer: < 65%

Question: What about the EC50 (M4 muscarinic receptor) of the same compound?
Answer: > 1000 nM

Question: What about the Emax (M4 muscarinic receptor) of the same compound?
Answer: < 65%

Question: For `CC(=O)NC1CC2(CCN(C[C@@H]3C[C@H]4C=C[C@H]3C4)CC2)c2ccccc21` (some centres unmarked) [compound 408], which EC50 (M1 muscarinic receptor) is on record?
Answer: < 100 nM

Question: And the Emax (M1 muscarinic receptor)?
Answer: 65 to 85%

Question: And the EC50 (M4 muscarinic receptor)?
Answer: < 100 nM

Question: What about the Emax (M4 muscarinic receptor) of the same compound?
Answer: 65 to 85%

Question: For `CCOC(=O)N1C2CCC1CC(N1CCC3(CC1)CN(C(=O)OC1CCC1)c1ccc(F)cc13)C2` (centres unmarked) [compound 409], which EC50 (M1 muscarinic receptor) is on record?
Answer: < 100 nM

Question: And the Emax (M1 muscarinic receptor)?
Answer: > 85%

Question: What about the EC50 (M4 muscarinic receptor) of the same compound?
Answer: < 100 nM

Question: And the Emax (M4 muscarinic receptor)?
Answer: > 85%

Question: With `CCOC(=O)N1CCC(N2CCC3(CC2)CN(C(=O)c2cccc(F)c2)c2ccc(F)cc23)CC1` [compound 410] as the compound, how does the EC50 (M1 muscarinic receptor) read?
Answer: 100 to 1000 nM

Question: What about the Emax (M1 muscarinic receptor) of the same compound?
Answer: < 65%

Question: What about the EC50 (M4 muscarinic receptor) of the same compound?
Answer: 100 to 1000 nM

Question: What about the Emax (M4 muscarinic receptor) of the same compound?
Answer: < 65%

Question: `Cc1cc(C(=O)N2CC3(CCN(C4CC5CCC(C4)N5C(=O)O[C@H]4CCOC4)CC3)c3cc(F)ccc32)nn1C` (some centres unmarked) [compound 411] was tested. Which EC50 (M1 muscarinic receptor) did it give?
Answer: < 100 nM

Question: What about the Emax (M1 muscarinic receptor) of the same compound?
Answer: < 65%

Question: And the EC50 (M4 muscarinic receptor)?
Answer: 100 to 1000 nM

Question: And the Emax (M4 muscarinic receptor)?
Answer: < 65%

Question: Which results are given for `COCCOC(=O)N1CCC(CN2CCC3(CC2)C[C@H](NC(C)=O)c2ccccc23)CC1` [compound 412]?
Answer: EC50 (M1 muscarinic receptor): 100 to 1000 nM; Emax (M1 muscarinic receptor): < 65%; EC50 (M4 muscarinic receptor): > 1000 nM; Emax (M4 muscarinic receptor): < 65%

Question: How did the EC50 (M1 muscarinic receptor) turn out when `CCOC(=O)N1CCC(N2CCC3(CC2)CN(C(C)=O)c2ccc(F)cc23)CC1` [compound 413] was run?
Answer: < 100 nM

Question: And the Emax (M1 muscarinic receptor)?
Answer: < 65%

Question: And the EC50 (M4 muscarinic receptor)?
Answer: 100 to 1000 nM

Question: What about the Emax (M4 muscarinic receptor) of the same compound?
Answer: < 65%

Question: How did the EC50 (M1 muscarinic receptor) turn out when `CCOC(=O)N1CCC(CN2CCC3(CCc4ccccc43)CC2)CC1` [compound 414] was run?
Answer: > 1000 nM

Question: And the Emax (M1 muscarinic receptor)?
Answer: < 65%

Question: And the EC50 (M4 muscarinic receptor)?
Answer: > 1000 nM

Question: What about the Emax (M4 muscarinic receptor) of the same compound?
Answer: < 65%

Question: `Clc1ccc2c(c1)C1(CCN(CC3CCOCC3)CC1)CO2` [compound 415] was tested. Which EC50 (M1 muscarinic receptor) did it give?
Answer: > 1000 nM

Question: And the Emax (M1 muscarinic receptor)?
Answer: < 65%

Question: And the EC50 (M4 muscarinic receptor)?
Answer: > 1000 nM

Question: What about the Emax (M4 muscarinic receptor) of the same compound?
Answer: < 65%

Question: What does the source list for `Fc1ccc2c(c1)C1(CCN(C3CC4CCC3C4)CC1)CN2` (centres unmarked) [compound 416]?
Answer: EC50 (M1 muscarinic receptor): > 1000 nM; Emax (M1 muscarinic receptor): < 65%; EC50 (M4 muscarinic receptor): > 1000 nM; Emax (M4 muscarinic receptor): < 65%

Question: With `CCOC(=O)N1C2CCC1CC(N1CCC3(CC1)CN(C(C)=O)c1ccc(Cl)cc13)C2` (centres unmarked) [compound 417] as the compound, how does the EC50 (M1 muscarinic receptor) read?
Answer: 100 to 1000 nM

Question: And the Emax (M1 muscarinic receptor)?
Answer: < 65%

Question: And the EC50 (M4 muscarinic receptor)?
Answer: > 1000 nM

Question: And the Emax (M4 muscarinic receptor)?
Answer: < 65%

Question: With `CC(=O)N1CC2(CCN(C3CCN(C(=O)O[C@H]4CCOC4)CC3)CC2)c2cc(F)ccc21` [compound 418] as the compound, how does the EC50 (M1 muscarinic receptor) read?
Answer: > 1000 nM

Question: And the Emax (M1 muscarinic receptor)?
Answer: < 65%

Question: What about the EC50 (M4 muscarinic receptor) of the same compound?
Answer: > 1000 nM

Question: And the Emax (M4 muscarinic receptor)?
Answer: < 65%

Question: How did the EC50 (M1 muscarinic receptor) turn out when `COCCOC(=O)N1CCC(CN2CCC3(CC2)CN(C(C)=O)c2ccc(C)cc23)CC1` [compound 419] was run?
Answer: > 1000 nM

Question: What about the Emax (M1 muscarinic receptor) of the same compound?
Answer: < 65%

Question: And the EC50 (M4 muscarinic receptor)?
Answer: > 1000 nM

Question: What about the Emax (M4 muscarinic receptor) of the same compound?
Answer: < 65%
